The results in this text go back to patent publication US20230101747A1 (Schrödinger, Inc., priority 2019, published 2023).

For this assay, the target named is T1, Full length human CDC7 protein co-expressed with DBF4 (Homo sapiens, UniProt O00311).
T1 construct: Full length human CDC7 protein co-expressed with DBF4; purchased SignalChem (China)
T1 sequence (O00311 whole entry): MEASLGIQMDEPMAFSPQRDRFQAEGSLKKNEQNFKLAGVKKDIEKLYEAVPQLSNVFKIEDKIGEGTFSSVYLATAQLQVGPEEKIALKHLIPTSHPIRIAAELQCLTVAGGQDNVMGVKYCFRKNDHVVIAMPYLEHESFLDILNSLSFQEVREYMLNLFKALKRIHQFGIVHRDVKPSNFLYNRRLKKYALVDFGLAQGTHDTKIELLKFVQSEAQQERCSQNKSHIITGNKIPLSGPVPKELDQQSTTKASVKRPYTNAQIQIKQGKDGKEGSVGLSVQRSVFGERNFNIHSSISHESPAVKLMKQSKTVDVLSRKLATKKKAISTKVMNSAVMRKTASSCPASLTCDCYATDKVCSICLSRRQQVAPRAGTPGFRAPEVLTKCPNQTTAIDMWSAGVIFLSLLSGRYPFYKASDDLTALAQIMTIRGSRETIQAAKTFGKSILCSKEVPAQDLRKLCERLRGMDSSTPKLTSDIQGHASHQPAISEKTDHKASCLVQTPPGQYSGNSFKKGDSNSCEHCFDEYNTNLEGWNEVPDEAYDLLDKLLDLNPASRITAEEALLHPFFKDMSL
T1 sequence (Q9UBU7 whole entry partner): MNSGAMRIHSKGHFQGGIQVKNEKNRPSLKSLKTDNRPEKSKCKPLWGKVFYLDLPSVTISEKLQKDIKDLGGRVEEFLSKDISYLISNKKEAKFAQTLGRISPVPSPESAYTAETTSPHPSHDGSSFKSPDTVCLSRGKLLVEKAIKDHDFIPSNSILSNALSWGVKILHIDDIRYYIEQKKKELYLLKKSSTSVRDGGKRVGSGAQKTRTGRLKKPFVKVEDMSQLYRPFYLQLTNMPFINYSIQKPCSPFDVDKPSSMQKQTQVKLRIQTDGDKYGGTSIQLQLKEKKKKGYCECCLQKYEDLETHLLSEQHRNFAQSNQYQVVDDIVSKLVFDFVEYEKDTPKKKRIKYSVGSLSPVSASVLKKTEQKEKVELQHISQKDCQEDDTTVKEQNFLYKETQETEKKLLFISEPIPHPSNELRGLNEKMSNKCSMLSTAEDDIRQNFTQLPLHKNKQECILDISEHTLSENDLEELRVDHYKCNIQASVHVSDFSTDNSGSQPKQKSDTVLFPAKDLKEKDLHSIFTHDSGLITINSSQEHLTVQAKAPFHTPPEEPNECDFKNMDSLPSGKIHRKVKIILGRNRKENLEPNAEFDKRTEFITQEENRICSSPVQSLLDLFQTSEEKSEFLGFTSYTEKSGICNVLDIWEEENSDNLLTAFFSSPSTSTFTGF
Nature of the assay: CDC7 kinase biochemical assay (ADP-Glo, PDKtide substrate). The note with it: 0.1 nM CDC7/DBF4, 1 uM ATP, 10 uM PDKtide, 4 h; read-out: CDC7 ADP-Glo PDKtide IC50. On the procedure:
CDC7 Kinase Biochemical Assay Protocol:
Full length human CDC7 protein co-expressed with DBF4 was purchased from SignalChem (China). CDC7 kinase activity was determined with PDKtide (SignalChem) as a substrate and by measuring ADP production using the ADP-Glo™ Kinase Assay kit (Promega) following the manufacturers instructions. The kinase reaction was performed using the following conditions: Buffer: 40 mM Tris pH 7.5, 20 mM MgCl2, 0.1 mg/ml BSA and 50 uM DTT. Final reaction mix contained 0.1 nM CDC7/DBF4, 1 uM ATP and 10 uM PDKtide. The kinase reaction time was 4 h. The ADP-Glo signal was measured using an EnVision plate reader (PerkinELmer).
Percent inhibition of CDC7 kinase activity was calculated based on the following formula: […]
SSample: the signal of compounds SHigh ctrl: the signal of high control (DMSO) SLow Ctrl: the signal of low control (positive control CDC7 inhibitor)
Background: In ADP-Glo the light output rises with the ADP produced.
The term IC50 denotes the concentration that gives 50% inhibition. `N#CC[C@@H]1CNC(=O)c2sc(-c3cn[nH]c3)c3c2N1CCO3` [Compound 59, (R)-2-(9-oxo-2-(1H-pyrazol-4-yl)-4,5,6,7,8,9-hexahydro-3-oxa-1-thia-5a,8-diazabenzo[cd]azulen-6-yl)acetonitrile]: the IC50 is under 1 nM.

As to `O=C1NC(C2CC(F)(F)C2)CN2CC(F)Cc3c(-c4cn[nH]c4)sc1c32` (single isomer, unassigned) [Compound 127, 7-(3,3-difluorocyclobutyl)-4-fluoro-2-(1H-pyrazol-4-yl)-4,5,7,8-tetrahydro-3H-1-thia-5a,8-diazabenzo[cd]azulen-9(6H)-one], the IC50 is under 1 nM.

Consider `Cc1ccnn1C[C@H]1CNC(=O)c2sc(-c3cn[nH]c3)c3c2N1CCO3` [Compound 62, (R)-6-((5-methyl-1H-pyrazol-1-yl)methyl)-2-(1H-pyrazol-4-yl)-4,5,7,8-tetrahydro-3-oxa-1-thia-5a,8-diazabenzo[cd]azulen-9(6H)-one], for which the IC50 was over 10 nM.

`CC1(C)NC(=O)c2sc(-c3ccncn3)c3c2N1CCCN3` [Compound 1, 5,5-dimethyl-1-(pyrimidin-4-yl)-4,5,6,7,8,9-hexahydro-3H-2-thia-4,5a,9-triazabenzo[cd]azulen-3-one]: the IC50 is under 1 nM.

Take `Cc1cnn(C[C@H]2CNC(=O)c3sc(-c4cn[nH]c4)c4c3N2CCC4)c1` [Compound 95, (R)-6-((4-methyl-1H-pyrazol-1-yl)methyl)-2-(1H-pyrazol-4-yl)-4,5,7,8-tetrahydro-3H-1-thia-5a,8-diazabenzo[cd]azulen-9(6H)-one]: the IC50 fell in the range of 1 to 10 nM.

For `CC1(C)NC(=O)c2sc(-c3c[nH]c4ncncc34)c3c2N1CCO3` [Compound 4, 6,6-dimethyl-2-(7H-pyrrolo[2,3-d]pyrimidin-5-yl)-4,5,6,7-tetrahydro-8H-3-oxa-1-thia-5a,7-diazaacenaphthylen-8-one], the IC50 lay in the range of 1 to 10 nM.

For the molecule `O=C1NC[C@H](CN2CCC2)N2CCCc3c(-c4cn[nH]c4)sc1c32` [Compound 94, (R)-6-(azetidin-1-ylmethyl)-2-(1H-pyrazol-4-yl)-4,5,7,8-tetrahydro-3H-1-thia-5a,8-diazabenzo[cd]azulen-9(6H)-one], the concentration for half-maximal inhibition (IC50) was in the range of 1 to 10 nM.

Regarding `C[C@@H]1CNC(=O)c2sc(-c3ccncc3)c3c2N1C(=O)CO3` [Compound 22, (R)-6-methyl-2-(pyridin-4-yl)-7,8-dihydro-3-oxa-1-thia-5a,8-diazabenzo[cd]azulene-5,9(4H,6H)-dione], the IC50 lay in the range of 1 to 10 nM.

For the molecule `Cc1n[nH]cc1-c1sc2c3c1OCCN3C[C@H](C)NC2=O` [Compound 17], the IC50 was 1 to 10 nM.

Regarding `O=C1NC([C@H]2[C@@H]3COC[C@@H]32)CN2CC(F)(F)Cc3c(-c4cn[nH]c4)sc1c32` (single isomer, unassigned) [Compound 124], the IC50 was under 1 nM.

For the molecule `O=C1NC(C2CC(F)(F)C2)CN2CCOc3c(-c4cn[nH]c4)sc1c32` (single isomer, unassigned) [Compound 111, (R or S)-7-(3,3-difluorocyclobutyl)-2-(1H-pyrazol-4-yl)-4,5,7,8-tetrahydro-3-oxa-1-thia-5a,8-diazabenzo[cd]azulen-9(6H)-one], the IC50 was under 1 nM.

As to `O=C1NC(C2CC(F)(F)C2)CN2CC(F)Cc3c(-c4cn[nH]c4)sc1c32` (single isomer, unassigned) [Compound 128, 7-(3,3-difluorocyclobutyl)-4-fluoro-2-(1H-pyrazol-4-yl)-4,5,7,8-tetrahydro-3H-1-thia-5a,8-diazabenzo[cd]azulen-9(6H)-one], the IC50 was 1 to 10 nM.

On to `CC1(C)NC(=O)c2sc(-c3ccnc4ccoc34)c3c2N1CCO3` [Compound 7, 2-(furo[3,2-b]pyridin-7-yl)-6,6-dimethyl-4,5,6,7-tetrahydro-8H-3-oxa-1-thia-5a,7-diazaacenaphthylen-8-one], for which the IC50 is over 10 nM.

Consider `O=C1N[C@H](C2CCCCO2)CN2CC(F)(F)Cc3c(-c4cn[nH]c4)sc1c32` (single isomer, unassigned) [Compound 137], for which the IC50 was over 10 nM.

As to `C[C@H]1CN2CCOc3c(-c4ccnc5[nH]ccc45)sc(c32)C(=O)N1` [Compound 18, (S)-7-methyl-2-(1H-pyrrolo[2,3-b]pyridin-4-yl)-4,5,7,8-tetrahydro-3-oxa-1-thia-5a,8-diazabenzo[cd]azulen-9(6H)-one], the IC50 was under 1 nM.

For `O=C1NC(C2CCCCO2)CN2CCCc3c(-c4cn[nH]c4)sc1c32` (single isomer, unassigned) [Compound 107], the IC50 was under 1 nM.

Take `CC1(C)NC(=O)c2sc(-c3ccncc3)c3c2N1CCCO3` [Compound 3, 5,5-Dimethyl-1-(pyridin-4-yl)-4,5,7,8-tetrahydro-3H,6H-9-oxa-2-thia-4,5a-diazabenzo[cd]azulen-3-one]: the IC50 is under 1 nM.

With `COC(=O)[C@@H]1CN2C(=O)COc3c(-c4cn[nH]c4)sc(c32)C(=O)N1` [Compound 53, Methyl (S)-5,9-dioxo-2-(1H-pyrazol-4-yl)-4,5,6,7,8,9-hexahydro-3-oxa-1-thia-5a,8-diazabenzo[cd]azulene-7-carboxylate], the IC50 is 1 to 10 nM.

Regarding `CC1(C)NC(=O)c2sc(-c3ccncc3)c3c2N1CCO3` [Compound 2, 6,6-dimethyl-2-(pyridin-4-yl)-4,5,6,7-tetrahydro-8H-3-oxa-1-thia-5a,7-diazaacenaphthylen-8-one], the IC50 is under 1 nM.

With `O=C1N[C@H](C23CCC(CC2)O3)CN2CC(F)(F)Cc3c(-c4cn[nH]c4)sc1c32` (single isomer, unassigned) [Compound 122], the IC50 is over 10 nM.

With `Cc1cnn(C[C@@H]2CNC(=O)c3sc(-c4cn[nH]c4)c4c3N2CCO4)c1` [Compound 63, (S)-6-((4-methyl-1H-pyrazol-1-yl)methyl)-2-(1H-pyrazol-4-yl)-4,5,7,8-tetrahydro-3-oxa-1-thia-5a,8-diazabenzo[cd]azulen-9(6H)-one], the IC50 fell in the range of 1 to 10 nM.

Regarding `CC(C)(O)C[C@H]1CN2CC(F)(F)Cc3c(-c4cn[nH]c4)sc(c32)C(=O)N1` [Compound 132, (S)-4,4-difluoro-7-(2-hydroxy-2-methylpropyl)-2-(1H-pyrazol-4-yl)-4,5,7,8-tetrahydro-3H-1-thia-5a,8-diazabenzo[cd]azulen-9(6H)-one], the IC50 was under 1 nM.

For `O=C1NC(C2CCCCO2)CN2CCCc3c(-c4cn[nH]c4)sc1c32` (single isomer, unassigned) [Compound 110], the IC50 is under 1 nM.

For `C[C@H]1CN2C(=O)CCc3c(-c4cn[nH]c4)sc(c32)C(=O)N1` [Compound 29, (S)-7-methyl-2-(1H-pyrazol-4-yl)-3,4,7,8-tetrahydro-5H-1-thia-5a,8-diazabenzo[cd]azulene-5,9(6H)-dione], the IC50 lay within 1 to 10 nM.

`CC1(C)NC(=O)c2sc(-c3cn[nH]c3)c3c2N1CCO3` [Compound 12, 6,6-dimethyl-2-(1H-pyrazol-4-yl)-4,5,6,7-tetrahydro-8H-3-oxa-1-thia-5a,7-diazaacenaphthylen-8-one]: the IC50 is under 1 nM.

With `Cc1n[nH]cc1-c1sc2c3c1CC(F)(F)CN3C[C@H]([C@H]1CCCO1)NC2=O` (single isomer, unassigned) [Compound 119], the IC50 was under 1 nM.

For `O=C1NC[C@H](C2CCOCC2)N2CCOc3c(-c4cn[nH]c4)sc1c32` (single isomer, unassigned) [Compound 28], the IC50 was over 10 nM.

`Cc1[nH]ncc1-c1sc2c3c1OCCN3C(C)(C)NC2=O` [Compound 6, 6,6-dimethyl-2-(5-methyl-1H-pyrazol-4-yl)-4,5,6,7-tetrahydro-8H-3-oxa-1-thia-5a,7-diazaacenaphthylen-8-one]: the IC50 is 1 to 10 nM.

Consider `O=C1NC2(CCOCC2)CN2CCOc3c(-c4cn[nH]c4)sc1c32` [Compound 64, 2-(1H-pyrazol-4-yl)-2′,3′,4,5,5′,6′-hexahydro-6H-3-oxa-1-thia-5a,8-diazaspiro[benzo[cd]azulene-7,4′-pyran]-2,2a1(9a)-dien-9(8H)-one], for which the IC50 was under 1 nM.

As for `O=C1N[C@H](CN2CCOCC2)CN2CC(F)(F)Cc3c(-c4cn[nH]c4)sc1c32` [Compound 134, (R)-4,4-difluoro-7-(morpholinomethyl)-2-(1H-pyrazol-4-yl)-4,5,7,8-tetrahydro-3H-1-thia-5a,8-diazabenzo[cd]azulen-9(6H)-one], the IC50 lay in the range of 1 to 10 nM.

On to `O=C1NC[C@@H](CC2(O)CC2)N2CCCc3c(-c4cn[nH]c4)sc1c32` [Compound 89, (9R)-9-[(1-hydroxycyclopropyl)methyl]-3-(1H-pyrazol-4-yl)-2-thia-8,11-diazatricyclo [6.4.1.0^4,13]trideca-1(13),3-dien-12-one], for which the IC50 was under 1 nM.

For `Cc1ccnn1C[C@H]1CN2CCOc3c(-c4cn[nH]c4)sc(c32)C(=O)N1` [Compound 44, (R)-7-((5-methyl-1H-pyrazol-1-yl)methyl)-2-(1H-pyrazol-4-yl)-4,5,7,8-tetrahydro-3-oxa-1-thia-5a,8-diazabenzo[cd]azulen-9(6H)-one], the IC50 is under 1 nM.

On to `O=C1NC(C2CC(F)(F)C2)CN2CCOc3c(-c4cn[nH]c4)sc1c32` (single isomer, unassigned) [Compound 112, (S or R)-7-(3,3-difluorocyclobutyl)-2-(1H-pyrazol-4-yl)-4,5,7,8-tetrahydro-3-oxa-1-thia-5a,8-diazabenzo[cd]azulen-9(6H)-one], for which the IC50 was under 1 nM.

On to `CC1(C)NC(=O)c2sc(-c3ccncn3)c3c2N1CCO3` [Compound 5, 6,6-Dimethyl-2-(pyrimidin-4-yl)-4,5,6,7-tetrahydro-8H-3-oxa-1-thia-5a,7-diazaacenaphthylen-8-one], for which the IC50 was over 10 nM.
